# Test: Solubility of anhydrous docetaxel in PEG 400 or PEG 300
# Type: physicochemical
# Settings: per 1 g of PEG 300; ultrasonic dispersion for 5 minutes at 70-80° C.
# Protocol: Formulations of anhydrous docetaxel and either PEG 400 or PEG 300 were prepared and mixed using ultrasonic dispersion for 5 minutes at 70-80° C. 1 g of PEG 400 dissolved 25 mg of anhydrous docetaxel. […] 1 g of PEG 300 dissolved 100 mg of anhydrous docetaxel. Accordingly, PEG 300 was able to better solubilize anhydrous docetaxel.
smiles,measurement,value
"CC(=O)O[C@@]12CO[C@@H]1C[C@H](O)[C@@]1(C)C(=O)[C@H](O)C3=C(C)[C@@H](OC(=O)[C@H](O)[C@@H](NC(=O)OC(C)(C)C)c4ccccc4)C[C@@](O)([C@@H](OC(=O)c4ccccc4)[C@H]21)C3(C)C [anhydrous docetaxel, (2R,3S)-N-carboxy-3-phenylisoserine,Ntert-butyl ester, 13-ester with 5β-20-epoxy-1,2α,4,7β,10β,13α-hexahydroxytax-11-en-9-one 4-acetate 2-benzoate]",amount of anhydrous docetaxel dissolved by 1 g of PEG 300,≥ 100 mg

# Reference: US9308195B2, “Non-aqueous taxane formulations and methods of using the same” (Teikoku Pharma USA, Inc., priority 2012, dated 2016)
